By IC50 is commonly meant the point on the concentration scale where inhibition reaches its midpoint. A low value points to greater potency.

From ChEMBL document CHEMBL4382196, “Unraveling the Prenylation-Cancer Paradox in Multiple Myeloma with Novel Geranylgeranyl Pyrophosphate Synthase (GGPPS) Inhibitors” (J Med Chem, 2018) come the findings set out here.

The source made the active and inactive calls. The rule behind the calls is not given here.

Data set [1] has as its system RPMI-8226. The data set is described as follows: Induction of apoptosis in human RPMI8226 cells assessed as early apoptotic cells at 1 uM after 72 hrs by APC Annexin V/eFluor-780-viability double staining-based FACS analysis (reference value: 3.31%). Type of data set: functional. (In flow cytometry, cells or beads pass a laser one at a time.)
For another data set, the system named is NCI/ADR-RES. Put plainly: Antiproliferative activity against human NCI-ADR-RES cells after 72 hrs by celltiter-glo luminescent assay. Type of data set: functional, cell-based. For orientation: ATP-based viability assays read luminescence as a measure of living cells.
In data set [2] the test system is RPMI-8226. Put plainly: Induction of apoptosis in human RPMI8226 cells assessed as early apoptotic cells at 1 uM after 72 hrs in presence GGOH by APC Annexin V/eFluor-780-viability double staining-based FACS analysis (reference value: 3.31%). Type of data set: functional.
The target in data set [3] is T1, Farnesyl pyrophosphate synthase (Homo sapiens, UniProt P14324).
T1 sequence (P14324 whole entry): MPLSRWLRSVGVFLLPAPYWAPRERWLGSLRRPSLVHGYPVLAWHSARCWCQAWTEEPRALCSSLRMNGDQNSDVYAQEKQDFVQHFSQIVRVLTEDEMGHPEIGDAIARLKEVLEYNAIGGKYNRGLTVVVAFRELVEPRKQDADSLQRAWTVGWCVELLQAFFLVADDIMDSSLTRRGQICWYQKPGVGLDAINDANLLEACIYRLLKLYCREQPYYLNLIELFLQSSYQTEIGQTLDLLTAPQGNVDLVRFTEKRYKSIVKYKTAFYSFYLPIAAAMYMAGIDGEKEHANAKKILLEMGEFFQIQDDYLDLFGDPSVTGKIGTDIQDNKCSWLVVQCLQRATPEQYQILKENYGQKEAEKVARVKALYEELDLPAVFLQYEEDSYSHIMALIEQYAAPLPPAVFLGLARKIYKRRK
Put plainly: Inhibition of human FPPS using [14C]-IPP and […] after 10 mins by scintillation counting.

For data set [4], the system named is RPMI-8226. The data set is described as follows: Induction of apoptosis in human RPMI8226 cells assessed as late apoptotic cells at 1 uM after 72 hrs by APC Annexin V/eFluor-780-viability double staining-based FACS analysis (reference value: 5.80%). Type of data set: functional.
The subject of data set [5] is RPMI-8226. The data set is described as follows: Induction of apoptosis in human RPMI8226 cells assessed as viable cells at 1 uM after 72 hrs in presence GGOH by APC Annexin V/eFluor-780-viability double staining-based FACS analysis (reference value: 87.3%). To be noted: RPMI-8226, 72 h, read-out: Activity. Type of data set: functional.
Data set [6] is described as follows: Toxicity in Vk*MYC transgenic mouse model assessed as weight loss at 3 mg/kg/day, ip administered over 14 days and measured at 4 hrs post last dose (reference value: 10 to 16%). The settings on record: in vivo. Type of data set: organism-based.
A short description of data set [7]: Half life in human liver microsomes by LC-MS/MS analysis. Type of data set: ADME, Microsome. On the technique in general: Liver microsomes are vesicles of endoplasmic reticulum, rich in cytochrome P450 enzymes.
For data set [8], the system named is RPMI-8226. Put plainly: Induction of apoptosis in human RPMI8226 cells assessed as viable cells at 1 uM after 72 hrs by APC Annexin V/eFluor-780-viability double staining-based FACS analysis (reference value: 87.3%). It counts as functional. To be noted: RPMI-8226, 72 h, read-out: Activity.
Data set [9] deals with RPMI-8226. The data set is described as follows: Induction of apoptosis in human RPMI8226 cells assessed as necrotic cells at 1 uM after 72 hrs by APC Annexin V/eFluor-780-viability double staining-based FACS analysis (reference value: 3.60%). It counts as functional.
The subject of another data set is Hydroxyapatite. Put plainly: Binding affinity to bone mineral hydroxyapatite at 50 uM by 1H NMR assay.
Data set [10] is described as follows: Hepatotoxicity in Vk*MYC transgenic mouse model assessed as effect of serum AST levels at 3 mg/kg/day, ip administered over 14 days and measured at 4 hrs post last dose relative to control. It counts as toxicity, organism-based. The settings on record: in vivo.
Data set [11] can be described thus: Hepatotoxicity in Vk*MYC transgenic mouse model assessed as effect of serum ALT levels at 3 mg/kg/day, ip administered over 14 days and measured at 4 hrs post last dose relative to control. Type of data set: toxicity, organism-based. To be noted: in vivo.
Data set [12] deals with RPMI-8226. Put plainly: Induction of apoptosis in human RPMI8226 cells assessed as necrotic cells at 1 uM after 72 hrs in presence GGOH by APC Annexin V/eFluor-780-viability double staining-based FACS analysis (reference value: 3.60%). Type of data set: functional.
Another data set has as its system MIA PaCa-2. Put plainly: Antiproliferative activity against human MIAPaCa2 cells at 10 uM after 72 hrs by celltiter-glo luminescent assay. Type of data set: functional, cell-based.
Data set [13] can be described thus: Half life in CD1 mouse liver microsomes by LC-MS/MS analysis. Type of data set: ADME, Microsome.
Data set [14] is described as follows: Half life in Sprague-Dawley rat liver microsomes by LC-MS/MS analysis. It counts as ADME, Microsome.
In data set [15] the test system is RPMI-8226. Put plainly: Induction of apoptosis in human RPMI8226 cells assessed as late apoptotic cells at 1 uM after 72 hrs in presence GGOH by APC Annexin V/eFluor-780-viability double staining-based FACS analysis (reference value: 5.80%). It counts as functional.

Consider `COc1ccc(NC(=O)c2cccc(-c3nc(NC(P(=O)(O)O)P(=O)(O)O)c4ccsc4n3)c2)cc1F`, for which the Activity was 4.42% with RPMI-8226 [1]; 3.06% in the data set on RPMI-8226 [2]; 43% with RPMI-8226 [4]; 15 to 28% in [6]; 40.2% in the data set with RPMI-8226 [9]; “Toxic” in data set [10]. The Activity entry is reported as “Toxic” in data set [11], 5.33% in the data set on RPMI-8226 [12] and 6.18% in the data set with RPMI-8226 [15]. Besides, the outcome in the data set with NCI/ADR-RES, in the data set with Hydroxyapatite and in the data set on MIA PaCa-2 was Active. In [3], this compound had a concentration for half-maximal inhibition (IC50) of 1.4 µM. In addition, the viability at 1 µM was 85.4% in the data set with RPMI-8226 [5] and 12.3% in the data set on RPMI-8226 [8]. The t1/2 in [7] was found to be 2.57 h; in data set [13] it was 2.13 h; in data set [14], 3.12 h.
